Assay results: PMC9316000, “Preclinical Drug Pharmacokinetic, Tissue Distribution and Excretion Profiles of the Novel Limonin Derivate HY-071085 as an Anti-Inflammatory and Analgesic Candidate in Rats and Beagle Dogs” (Pharmaceuticals, 2022)

Legend:
[1] = Pharmacokinetics after single-dose intravenous administration in beagle dogs; type: in vivo; details: S-IV 1.25 mg/kg
Experimental: After the intravenous administration of 1.25 mg/kg HY-071085, there was also no gender difference for the plasma concentration time data in Figure 9.
In vivo PK profiling in dogs: Beagle dogs (approximately 8–10 kg in weight) were purchased from Jiangsu Yadong Experimental Animal Research Institute Co. Ltd (Nanjing, China). Before the experiment, several beagle dogs were randomly divided into several groups, half males and half females in each group. Four cycles of single-dose administration experiments were carried out, and the cleaning period was 3–5 days. Repeated-dose administration was carried out after the end of four cycles of single-dose administrations and cleaning periods. According to the dosage for the rats, the dosage for the beagle dogs was converted via the body surface area method. The HY-071085 active pharmaceutical ingredients were administered with a dosage volume of 2 mL/kg body weight. The whole-blood samples were centrifuged at 8000 rpm for 5 min, and the plasma samples were separated and stored at –80 °C until the analysis.
According to the obtained plasma concentration time data, the pharmacokinetic parameters were calculated using Phoenix WinNonlin 8.1 software. The pharmacokinetic parameters—i.e., the area under the curve (AUC), mean residence time (MRT), clearance rate (Cl/F) and steady-state apparent distribution volume (Vss/F)—were calculated by the method of moments, which was estimated according to the following formulae: AUCtn=∑Ci+Ci−1ti−ti−1/2 AUC∞=AUCtn+Cm/λ AUMCtn=∑tiCi+ti−1Ci−1ti−ti−1/2 AUMC∞=AUMCtn+Ctntn/λ+1/λ^2 MRT=AUMC∞/AUC∞ Cl/F=Dose/AUC Vss/F=Cl∗MRT where Ctn is the plasma concentration of tn at the last point after administration, and the elimination rate constant was obtained by ln(concentration) time linear regression.
Due to the drug having significant individual differences in rats, it could not be uniformly fitted with a PK atrioventricular model; as such, the pharmacokinetic parameters analyzed in this study were calculated using a non-atrioventricular model. The pharmacokinetic parameters are defined as follows: Cmax is the maximum blood concentration after administration and absorption, Tmax is the time required to reach Cmax, t1/2 is the time required to eliminate half of the plasma drug concentration after the drug distribution in the body reaches equilibrium, Cl/F is the apparent clearance rate, AUC0-tn is the area under the blood concentration time curve within the dosing interval, AUC0-∞ is the area under the plasma concentration time curve from 0 to infinity, MRT is the average time that all drug molecules stay in the body, and Vss/F is the steady-state apparent distribution volume, which is the product of the clearance rate and average residence time.

[2] = Stability in rat plasma under storage conditions; type: in vitro ADME; details: for stability in plasma, accuracy: n=5
Experimental: The stability of HY-071085 in rat plasma was evaluated by analyzing five repeated QC samples under various storage conditions: long-term freezing (freezing at −80 °C for 30 days), repeated freezing and thawing (thawing with a 37 °C water bath after freezing at −80 °C, repeated three times), normal temperature placement (a 37 °C constant temperature water bath for 8 h), and injector placement (4 °C for 24 h).

Structure (SMILES): CC1(C)OC2CC(=O)OCC23C1C/C(=N\OCCN1CCOCC1)C1(C)C3CC[C@@]2(C)[C@H](c3ccoc3)OC(=O)C3OC312 (stereo partly drawn) [HY-071085, (12S,12aS,E)-12-(furan-3-yl)-6,6,8a,12a-tetramethyl-8-((2-morpholinoethoxy)imino)dodecahydro-1H,3H-oxireno [2,3-d]pyrano [4’,3’:3,3a]isobenzofuro [5,4-f]isochromene-3,10(9aH)-dione]
- Cl/F [1]: 51.2 ± 24.2 mL/min/kg
- Vss/F [1]: 2.07 ± 1.17 L/kg
- AUC(0-inf) ([1]; both sexes, dog, plasma): 594 ± 538 ng·h/mL
- Cmax ([1]; both sexes, dog, plasma): 1200 ± 1510 ng/mL
- MRT ([1]; both sexes, dog, plasma): 37.2 ± 12 min
- Tmax ([1]; both sexes, dog, plasma): 5.4 ± 1.8 min
- half-life ([1]; both sexes, dog, plasma): 42 ± 5.4 min
- AUC ([1]; both sexes, dog, plasma, read-out: AUC0-tn): 591 ± 539 ng·h/mL
- stability in plasma, accuracy ([2]; injector (24h, 4 °C), 2 ng/mL): 105.00%
- stability in plasma, accuracy ([2]; injector (24h, 4 °C), 800 ng/mL): 101.55%
- stability in plasma, accuracy ([2]; long-term freezing (−80 °C, 30 days), 2 ng/mL): 112.40%
- stability in plasma, accuracy ([2]; long-term freezing (−80 °C, 30 days), 800 ng/mL): 101.50%
- stability in rat plasma ([2]; long-term freezing, repeated freezing and thawing, 37 °C 8 h, injector 4 °C 24 h): stable
- stability in plasma, accuracy ([2]; normal temperature (8h), 2 ng/mL): 105.90%
- stability in plasma, accuracy ([2]; normal temperature (8h), 800 ng/mL): 97.70%
- stability in plasma, accuracy ([2]; repeated freeze-thaw (three times), 2 ng/mL): 97.40%
- stability in plasma, accuracy ([2]; repeated freeze-thaw (three times), 800 ng/mL): 97.33%
